“And” between values parts separate entries of the source, which are not always exact repeats. Identical values can stand only once.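 Test compounds were applied to cells in 96-well plates for 48 hours at 5 doses. At the GI50, growth is halved. TGI denotes the concentration required for complete inhibition of growth.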 Where only a bound is given, the exact number is not on record here.

Among the data in PubChem BioAssay (NCI) are GI50 and TGI values, retold here.

Some test systems named below: RPMI-8226 leukemia; IGROV1 ovarian; LOX IMVI melanoma; BT-549 breast; DU-145 prostate; SNB-75 CNS; SF-295 CNS; A549 NSCLC; PC-3 prostate; HT29 colon.
Common to all, as to experiment: NCI tumour cell line growth inhibition, 48 h

Consider `CN1CCN(c2ccc3nc(-c4[nH]ncc4Nc4ncnc5[nH]ccc45)[nH]c3c2)CC1`, for which the GI50 was 5.92 µM in the test with RPMI-8226 leukemia; 0.189 µM with IGROV1 ovarian; 0.148 µM in the test on LOX IMVI melanoma; 0.222 µM in the test on BT-549 breast; 0.362 µM in the test with DU-145 prostate; 0.116 µM with SNB-75 CNS. For the same compound, the GI50 is 0.867 µM in the test with SF-295 CNS, 1.74 µM in the test on A549 NSCLC, 0.222 µM with PC-3 prostate and 1.47 µM in the test with HT29 colon. Moreover, the TGI with RPMI-8226 leukemia was 19.3 µM; with IGROV1 ovarian it was 1.41 µM; with LOX IMVI melanoma it was 0.906 µM; with BT-549 breast, 0.816 µM; in the test with DU-145 prostate, 22.7 µM; with SNB-75 CNS it was 0.574 µM. Moreover, the TGI worked out at 3.18 µM in the test on SF-295 CNS, 15 µM in the test with A549 NSCLC, 3.54 µM with PC-3 prostate and 6.06 µM in the test with HT29 colon.

For the compound `CCOc1ccc2nc3cc(N)ccc3c(N)c2c1`, the GI50 with RPMI-8226 leukemia is 15.4 µM and 13.9 µM; with IGROV1 ovarian, 11.5 µM and 15.3 µM; in the test with LOX IMVI melanoma, 4.53 µM and 2.95 µM; in the test with BT-549 breast it was 2.23 µM and 1.8 µM; in the test with DU-145 prostate it was 5.65 µM and 6.17 µM; with SNB-75 CNS it was 2.86 µM and 14.1 µM. Further, the GI50 is 2.09 µM and 1.98 µM in the test on SF-295 CNS; 9.61 µM and 10.9 µM in the test on A549 NSCLC; 3.85 µM and 2.99 µM with PC-3 prostate; 5.77 µM and 5.22 µM in the test with HT29 colon. Also, the TGI in the test on RPMI-8226 leukemia is 43.5 µM and 38.4 µM; in the test with IGROV1 ovarian, 37.3 µM and 45.4 µM; in the test on LOX IMVI melanoma, 20 µM and 12.4 µM; in the test on BT-549 breast, 8.28 µM and 4.91 µM; in the test on DU-145 prostate, 18.3 µM and 19 µM; in the test with SNB-75 CNS, 8.78 µM and 28.4 µM. The TGI was 11.9 µM and 11.4 µM in the test on SF-295 CNS; 28.6 µM and 26.2 µM in the test with A549 NSCLC; 16.1 µM and 12.7 µM in the test with PC-3 prostate; 19.5 µM and 17.9 µM in the test on HT29 colon.

Turning to `CCOC(=O)c1sc2nc(=S)[nH]c(NC(N)=S)c2c1C`, the GI50 in the test with RPMI-8226 leukemia was 18.4 µM; in the test on IGROV1 ovarian it was 31.5 µM; in the test on LOX IMVI melanoma, 15.4 µM; in the test with BT-549 breast, 12.6 µM; with DU-145 prostate, 15.4 µM; in the test on SNB-75 CNS, 21.4 µM. For the same compound, the GI50 with SF-295 CNS was 24.4 µM; in the test on A549 NSCLC, 31.2 µM; in the test with PC-3 prostate it was 22.7 µM; with HT29 colon, 20.1 µM. The TGI in the test on RPMI-8226 leukemia was 49.9 µM; in the test with IGROV1 ovarian, above 100 µM; in the test with LOX IMVI melanoma, 31 µM; in the test with BT-549 breast, 41 µM; with DU-145 prostate, 39.4 µM; in the test on SNB-75 CNS, 66.6 µM. The TGI with SF-295 CNS was 65.8 µM; in the test with A549 NSCLC, 90.7 µM; in the test with PC-3 prostate it was 94.6 µM; with HT29 colon, 52.9 µM.

Take `CN(C)CCN1C(=O)c2cccc3cc(N)cc(c23)C1=O`: the GI50 is 3.37 µM in the test on RPMI-8226 leukemia; 2.68 µM in the test on IGROV1 ovarian; 2.18 µM with LOX IMVI melanoma; 11.2 µM in the test on BT-549 breast; 1.59 µM with DU-145 prostate; 3.81 µM with SNB-75 CNS. Besides, the GI50 with SF-295 CNS is 2.29 µM; in the test with A549 NSCLC, 0.912 µM and 1.51 µM; with PC-3 prostate, 4.07 µM; with HT29 colon, 2.75 µM. Moreover, the TGI in the test with RPMI-8226 leukemia was 25.2 µM and 19.9 µM; in the test with IGROV1 ovarian, > 44.1 µM and 20.8 µM; with LOX IMVI melanoma it was > 31.3 µM and 7.29 µM; in the test on BT-549 breast, 28.3 µM and 13.1 µM; in the test on DU-145 prostate it was 29.8 µM and 12.9 µM; in the test with SNB-75 CNS it was 17 µM and 16.7 µM. Moreover, the TGI with SF-295 CNS was 9.31 µM and 18.4 µM; in the test with A549 NSCLC it was > 21.5 µM and 9.09 µM; with PC-3 prostate it was 42.8 µM and 8.73 µM; in the test on HT29 colon, 12 µM and 14.1 µM.

Turning to `C=CC(=O)N1CCN([C@@H](CC2CC2)c2ccc([C@H](C)Nc3ncc4c(n3)N(CC)C(=O)OC4)cc2)CC1`, the GI50 in the test with RPMI-8226 leukemia is 4.95 µM; in the test with IGROV1 ovarian, 4.58 µM; in the test with LOX IMVI melanoma, 11.1 µM; with BT-549 breast, 4.7 µM; in the test with DU-145 prostate, 12.7 µM; with SNB-75 CNS, 2.06 µM. For the same compound, the GI50 in the test on SF-295 CNS is 13 µM; in the test on A549 NSCLC, 11.4 µM; with PC-3 prostate it was 12 µM; with HT29 colon, 17.5 µM. In addition, the TGI in the test with RPMI-8226 leukemia came out at 24.9 µM; in the test on IGROV1 ovarian, 17.5 µM; with LOX IMVI melanoma, 26.6 µM; with BT-549 breast, 16.6 µM; in the test on DU-145 prostate it was 25.4 µM; with SNB-75 CNS, 16.7 µM. In addition, the TGI was determined as 26.3 µM in the test on SF-295 CNS, 28.7 µM with A549 NSCLC, 31.4 µM in the test with PC-3 prostate and 50.7 µM with HT29 colon.

Consider `CC(C)Cn1cnc2c(N)nc3ccccc3c21`, for which the GI50 with RPMI-8226 leukemia was 5.5 µM; with IGROV1 ovarian, 51.8 µM; in the test with LOX IMVI melanoma, 25.7 µM; in the test with BT-549 breast it was 43.8 µM; with DU-145 prostate it was 47.2 µM; with SNB-75 CNS it was 41.4 µM. The GI50 in the test with SF-295 CNS is 51.3 µM; in the test on A549 NSCLC, 39.3 µM; in the test with PC-3 prostate, 34.7 µM; in the test with HT29 colon it was 28.8 µM. Further, the TGI was above 48.3 µM in the test with RPMI-8226 leukemia; above 100 µM with IGROV1 ovarian; above 100 µM in the test with LOX IMVI melanoma; above 100 µM in the test with BT-549 breast; above 100 µM with DU-145 prostate; above 100 µM with SNB-75 CNS. Moreover, the TGI with SF-295 CNS, in the test on A549 NSCLC, in the test on PC-3 prostate and in the test with HT29 colon was above 100 µM each time.

For the compound `CC(C)OC(=O)Nc1c([N+](=O)[O-])cc(C(F)(F)F)cc1[N+](=O)[O-]`, the TGI was above 100 µM in the test with RPMI-8226 leukemia; above 100 µM in the test with IGROV1 ovarian; above 100 µM with LOX IMVI melanoma; above 100 µM in the test on BT-549 breast; above 100 µM in the test with DU-145 prostate; 40 µM in the test on SNB-75 CNS. Also, the TGI in the test with SF-295 CNS was 98.2 µM; in the test on A549 NSCLC, above 100 µM; in the test on PC-3 prostate, above 100 µM; in the test with HT29 colon, above 100 µM.

`C/C(=C1\C(=O)Nc2ccccc21)c1cccc(/C(C)=C2/C(=O)Nc3ccccc32)n1`: the GI50 in the test with RPMI-8226 leukemia was 4.87 µM; in the test with IGROV1 ovarian, 35.6 µM; in the test on LOX IMVI melanoma it was 8.4 µM; in the test with BT-549 breast, 5.43 µM; in the test with DU-145 prostate it was 2.93 µM; with SNB-75 CNS, 40.2 µM. The GI50 with SF-295 CNS is 18.5 µM; with A549 NSCLC, 7.38 µM; with PC-3 prostate, 24.4 µM; with HT29 colon, 8.09 µM. Also, the TGI with RPMI-8226 leukemia was above 100 µM; in the test on IGROV1 ovarian, above 100 µM; with LOX IMVI melanoma, 31 µM; in the test on BT-549 breast, 36.5 µM; with DU-145 prostate, above 100 µM; with SNB-75 CNS it was above 100 µM. Moreover, the TGI is 85.4 µM in the test on SF-295 CNS, above 100 µM in the test with A549 NSCLC, above 100 µM in the test on PC-3 prostate and above 100 µM in the test on HT29 colon.
